How the values were obtained:
[1] = tested on: Androgen-induced benign prostatic hyperplasia in rats; experiment: Androgen-induced benign prostatic hyperplasia; assay type: in vivo, SD rats; details: TJ01-013 30 mg/kg, Finasteride 10 mg/kg
Experimental: Androgen-induced benign prostatic hyperplasia in rats has been used in many research fields. The specific model was constructed as follows: 180 g-200 g male SD rats were given 30 mg/kg androgen intramuscularly every other day, and 15 consecutive androgen injections were given for modeling, and the experiments were divided into […], a negative control group (Sham), a model control group (Control), TJ01-013 treatment group (TJ01-013, 30 mg/kg), Finasteride treatment group (Finasteride, 10 mg/kg), and TJ01-013+Finasteride treatment group (13+F). The drug was administered at the same time as the androgen modeling, the mode of administration was by oral gavage, the volume of the administration was 10 ml/kg, the frequency of administration was daily, and the administration was ended on the 30th day, the rats were weighed and euthanized, and the prostate and urethra of the rats were taken and weighed, and the organ coefficients (weight of the prostate gland/weight of the rats) were finally calculated.

[2] = tested on: CUMS animal model of depression; experiment: CUMS depression model behavioral tests; assay type: in vivo, C57BL/6J mice; details: Fluoxetine 30 mg/kg
Text: Depression, also known as depressive disorder, is characterized by significant and long-lasting depressed state of mind as the main clinical feature. The CUMS animal model of depression is a chronic unpredictable animal stress model, which simulates part of the stressor, the external material environmental stimulus, and will cause dysfunctions in the animal organism through different stress stimuli, leading to occurrence of the psychiatric disease depression. […] During this period, carefully observing the status of each mouse. • (6) Basket shaking: Placing the mice in an empty basket and shaking the basket drastically, with the criterion that the mice in the basket are unable to stand firm and sway with the shaking of the basket, for 1 hour. • (7) Olfactory stimulation: Placing anise and other spices in the mice's baskets as a means of olfactory stimulation.
The above seven experiments were conducted randomly during a week as a way to achieve unpredictability with 4 weeks of continuous stimulation.
At the end of the modeling, an open field test experiment was conducted to screen the modeled animals and group the successful modeled animals into five groups: normal group (Control), model control group (Model), positive drug treatment group (Fluoxetine), TJ0113 10 mg/kg treatment group (10 mg/kg), […], TJ0113 30 mg/kg treatment group (30 mg/kg). There were 10 mice in each group, and the administration treatment was administered by gavage, the normal and model control groups were given vehicle treatment, the vehicle was 0.5% CMC-Na, the positive drug fluoxetine hydrochloride was solubilized in saline and administered at a dose of 30 mg/kg, and the TJ0113 vehicle was 0.5% CMC-Na, and administered at a dose of 10 mg/kg and 30 mg/kg, respectively. 4 weeks after the end of the administration, behavioral tests were performed.
• (1) Adaptive feeding: Adaptive feeding with 1% sucrose water and plain water for 2 d before the start of the test, at 1 d, interchanging the sugar water and plain water to avoid positional differences for the animals, and fasting food and water for 1 d after adaption; • (2) Formal test: after fasting food and water, 1% sucrose water and plain water were given to the animals (the initial mass of sugar water and plain water is known), and weighing the remaining mass of sugar water/plain water of each animal after 24 h, and calculating the consumption rates of sugar water A and plain water B; • (3) Data analysis: sugar water preference rate=(A/A+B)×100%.
• (1) adapting to the environment: placing the animals in the test environment for 60 min to adapt to the environment before the test; • (2) Formal test: fixing the rear 1/3 of the mouse tail with tape and suspending on the stand of the experimental apparatus, with the head 15 cm from the bottom; • (3) starting timing camera, and stopping after 6 min, and recording the immobility time of the mice within 4 min; • (4) At the end of the test, using 75% alcohol to wipe the bottom and inner wall of the chamber.
• (1) adapting to the environment: placing the animals in the test environment for 60 min to adapt to the environment before the test; • (2) Formal test: placing the animals to be tested in the middle of the open field, and using the ANY-Maze software to collect the data, the test time is 10 min, and the feces and urine must be removed at the end of each round and disinfected and wiped dry with 75% alcohol; • (3) Analysis of results: total moved distance and average speed during the activity, time spent in the center area and time spent in the corner area.

[3] = In vitro liver microsomal stability test; details: microsomes
Experimental: Ketanserin was selected as the reference compound. The specific method was as follows:
0.1 M K3PO4 (pH 7.4) buffer and 3×NADPH stock solution (6 mM, 5 mg/mL) were configured and preheated in a 37° C. water bath; configuration of the test compounds and the control compounds (spiking solution): adding 5 μL of the compound stock solution ([…]) into 95 μL of acetonitrile; configuration of 1.5 μM spiking solution in microsomes (0.75 mg/mL): adding 1.5 μL of spiking solution and 18.75 μL of liver microsomal solution (20 mg/mL) into 479.75 μL of K3PO4 buffer; adding 30 μL of spiking solution in microsomes into the multiwell plate, and incubating at 37° C. for 5 min; adding 15 μL of NADPH storage solution into each well to start to react, and timing; adding 150 μL of acetonitrile solution containing IS at 0 min, 5 min, 15 min, 30 min, and 45 min, respectively, stopping the reaction; oscillating for 10 min, and then centrifuging at 6,000 rpm for 15 min; taking 80 μL of supernatant from each well for LC/MS detection, and calculating T1/2.

[4] = tested on: HGPS-MSC; experiment: Senescence of HGPS patient derived mesenchymal stem cells; assay type: cell-based, human; details: 10 μM
Experimental: Mesenchymal stem cells HGPS-MSC differentiated from pluripotent stem cells (iPSC) of patients with Hutchinson-Gilford Progeria Syndrome (HGPS) were taken for culture, and the experiment was divided into three groups, namely, young cells cultured for 7 generations, labeled as Con-Y; senescent cells cultured for 12 generations, labeled as Con-O; and the administration group to which 10 μM of TJ01-013 was added during the process of culture, similarly cultured up to the 12th generation, labeled as Con-O+TJ01-013; the drug administration group to which 10 μM positive drug Ionafarnib was added during the process of culture, similarly cultured up to the 12th generation, and labeled as Con-O+ Ionafarnib; after the end of the treatment, all the cells were placed under the microscope to observe the morphology of the cells, and the proportion of SA-β-gal+ cells was counted. The levels of DNA damage marker γ-H2AX and heterochromatin modification H3K9me3 after TJ01-013 treatment and Ionafarnib treatment were detected by immunofluorescence technique (the specific procedure was described previously).

[5] = tested on: LPS-induced acute lung injury mice; experiment: LPS-induced acute lung injury; assay type: in vivo, C57BL/6J mice
Experimental: Male mice C57BL/6J aged 6-8 weeks and weighing 18-22 g were selected for the study. After fixing the mice, 50 μl of PBS was injected into the airways of the mice under direct laryngoscopic vision to form a control group, and 5 mg/kg of LPS (E.coil) was dissolved in 50 μl of PBS and dripped to form a model group. The experiments were divided into […], each having 6 mice, namely, NS group (control group, airway drip of 50 μl PBS), LPS group (model control group, airway drip of 50 μl LPS), LPS+10 mg/kg group (airway drip of 50 μl LPS and given 10 mg/kg TJ01-013 treatment), LPS+20 mg/kg group (airway drip of 50 μl LPS and given 20 mg/kg TJ01-013 treatment), LPS+30 mg/kg group (airway drip of 50 μl LPS and given 30 mg/kg TJ01-013 treatment), LPS+Sivelestat group (Positive control group, airway drip of 50 μl LPS and given 5 mg/kg Sivelestat treatment). All groups were administered […] by intraperitoneal injection in a volume of 200 μl 1 h and 7 h after airway drip, and the mice were euthanized 24 h later, bronchoalveolar lavage fluid (BALF) was taken, and the levels of inflammatory factors in the bronchoalveolar lavage fluid were detected and the changes in the transcriptional levels of tissue-associated inflammatory factors were observed. • (2) taking and observing of Bronchoalveolar lavage fluid (BALF)
Use chloral hydrate intraperitoneal injection to make mice die of rapid overdose anesthesia, place mice in supine position on the dissection table, fix the limbs, disinfect the skin of the neck of the mice with 75% ethanol, incise the skin along the midline of the neck, bluntly separate the subcutaneous connective tissues and muscles with hemostatic forceps, expose the trachea, separate connective tissues on both sides of the trachea and between the trachea and the esophagus, and free the trachea. Two surgical sutures about 20 cm long were threaded between the trachea and esophagus. A 24G intravenous cannula needle was inserted at a 30-degree angle from the connective tissue membrane between the thyroid cartilage and the cricoid cartilage, and the intravenous cannula needle was delivered in the direction of the tracheal eminence. A surgical suture placed between the tracheo-esophageal was ligated at the entry of the cannula into the trachea and at the distal end of the cannula, respectively, and tied as tightly as possible to secure the cannula and trachea. 0.8 ml of PBS was aspirated with a 1 ml syringe, and the syringe was connected to the inlet end of the intravenous cannula needle, and PBS was slowly injected into the trachea, stayed for 30 seconds and then was withdrawn back, and a milky white frothy liquid withdrawn back was visible, and the lavage was repeated three times, and the liquid was centrifuged at 1500 rpm/min for 10 min, and the supernatant was used for cytokine assay, and the cell precipitates were coated after resuspending with PBS for Giemsa staining and sorting and counting.
The levels of inflammatory factors (inflammatory factors including IL-6, CXCL1, CXCL2, etc.) in BALF supernatant were detected according to the instructions of the ELISA test kit.
The obtained cDNA was amplified on a 96-well PCR plate using a LightCycler 480 system, and the gene level was determined by using glyceraldehyde 3-phosphate dehydrogenase (GAPDH) as an internal standard.

[6] = tested on: LPS-induced sepsis in mice; experiment: LPS-induced sepsis survival; assay type: in vivo, C57 mice; details: 8th day; 10 mg/kg intraperitoneal once a day; LPS alone about 20%; FIG. 33
Experimental: A constructed preclinical sepsis model is a LPS-induced sepsis in mice. Injection of purified LPS into mice by intraperitoneal route or intravenous route can lead to activation of the innate immune system and simulate fulminant Gram-negative bacterial infections, the specific modeling method is as follows: 20-25 g C57 mice were selected, and 20 mg/kg LPS was injected intraperitoneally according to the body weight (the LPS was dissolved with PBS), and the experiment was divided into three groups, a model control group (LPS), a positive control treatment group (prednisone, 10 mg/kg), TJ01-013 treatment group (TJ01-013, 10 mg/kg), the mode of administration was intraperitoneal injection, the volume of administration was 5 ml/kg, the frequency of administration was once a day, and the biological deaths and changes in body weights of the mice were observed and recorded every day, and the mice were regarded as physiologically dead if their body weights decreased by 20% or more compared with that before the administration of LPS. Survival curves were plotted based on deaths observed up to 8 days after administration.

[7] = TJ01-013 10, 20, 30 mg/kg, Sivelestat 5 mg/kg, FIG. 26
[8] = concentration-dependent for TJ01-013, FIG. 27

CC(C)(C)NC(=O)[C@H]1CC[C@H]2[C@@H]3CC[C@H]4NC(=O)C=C[C@]4(C)[C@H]3CC[C@]12C [Finasteride]
prostate weight ([1]; oral gavage daily to day 30, FIG. 34): reduced
organ coefficient of prostate ([1]; oral gavage daily, FIG. 35): reduced the organ coefficient of prostate, but there was no significant difference
weight of urethra and bladder ([1]; oral gavage daily, FIG. 36): tendency of decreasing its weight

CNCCC(Oc1ccc(C(F)(F)F)cc1)c1ccccc1 (stereo not shown) [Fluoxetine, reference compound]
average movement speed, open field ([2]; TJ0113 10 mg/kg and 30 mg/kg, FIG. 61): significantly increased
sugar water preference ([2]; TJ0113 30 mg/kg, gavage, FIG. 57): significantly increased
time in despair (immobility), tail-hanging experiment ([2]; TJ0113 30 mg/kg, FIG. 58): significantly decreased
distance moved, open field ([2]; TJ0113 30 mg/kg, FIG. 59): significantly increased
time in the edge area of the open field ([2]; TJ0113 30 mg/kg, FIG. 60): significantly decreased

CN(c1cc([S+]([O-])CC(=O)O)c(O)c2ccccc12)S(=O)(=O)c1ccc(Br)cc1 (stereo not shown) [I-2]
liver microsomal stability (elimination half-life T1/2) [3]: superior liver microsomal stability

NC(=O)N1CCC(CC(=O)N2CCC([C@H]3c4ncc(Br)cc4CCc4cc(Cl)cc(Br)c43)CC2)CC1 [Ionafarnib, reference compound]
percentage of SA-β-gal+ cells ([4]; 12th generation, vs Con-O, FIG. 54): significantly decreased
level of DNA damage marker γ-H2AX ([4]; FIG. 55): significantly reduced
expression level of heterochromatin-modified H3K9me3 ([4]; FIG. 56): restored its expression level to some extent

CC(C)(C)C(=O)Oc1ccc(S(=O)(=O)Nc2ccccc2C(=O)NCC(=O)O)cc1 [Sivelestat, reference compound]
CXCL1 level in alveolar lavage fluid (ELISA) [5, 7]: significantly decreased
CXCL2 level in alveolar lavage fluid (ELISA) [5, 7]: no significant effect
IL-6 level in alveolar lavage fluid (ELISA) [5, 7]: no significant effect
CXCL1 transcript level in lung tissue [5, 8]: significantly decreased
CXCL2 transcript level in lung tissue [5, 8]: no significant effect
IL-6 transcript level in lung tissue [5, 8]: no significant effect

C[C@]12C=CC(=O)C=C1CC[C@@H]1[C@@H]2C(=O)C[C@@]2(C)[C@H]1CC[C@]2(O)C(=O)CO [prednisone, reference compound]
survival rate [6]: 100%

— patent US20260027073A1, “USE OF SMALL-MOLECULE COMPOUND HAVING NAPHTHYLAMINE STRUCTURE” (HANGZHOU PHECDAMED CO., LTD., priority 2023, published 2026)
